Data from patent US11161831B2, “Methods and compositions for treatment of muscle wasting, muscle weakness, and/or cachexia” (Baylor College of Medicine, priority 2013, dated 2021).

System: mice with CKD
Experiment: CKD-induced muscle wasting in mice (subtotal nephrectomy)
Assay type: in vivo
Method: FIGS. 21A-21G provides a small molecule inhibitor of Stat3 activation, C188-9, that blocks CKD-induced muscle wasting. FIG. 21A. Sham or CKD mice were treated with C188-9 or D5W (diluent) for 14 days. Representative western blots of p-Stat3, Stat3 and GAPDH from lysates of gastrocnemius muscles are shown (n=8 mice/group). FIG. 21B. Differences in body weights of pair-fed, sham or CKD mice treated with C188-9 or D5W at baseline and after 7 or 14 days of treatment (*p<0.05 vs. D5W sham). FIGS. 21C & 21D. Average weights of mixed fiber gastrocnemius and tibialis anterior (TA) muscles from both legs (n=7 mice/group). FIG. 21E. Cryosections of TA muscles were immunostained with anti-laminin to identify the muscle basement membrane. The myofiber areas were measured and the myofiber size distribution was calculated from the areas of ˜500 myofibers assessed by an observer blinded to treatment group (n=4 pairs of mice). FIG. 21F. Muscle force of each mouse studied in FIG. 3C was measured on four consecutive days (Experimental Procedures; n=7 mice/group). G&H. At 2 weeks of C188-9 or D5W treatment, protein synthesis (FIG. 21G) and degradation (FIG. 21H) were measured (n=8 pairs of mice; *p<0.05 vs. D5W). Values are means±SEM.
FIG. 23A. Representative western blots of the indicated proteins from lysates of gastrocnemius muscles of control (Stat3flox/flox) or Stat3 KO sham or CKD mice. FIGS. 23B & 23C. mRNAs of myostatin (FIG. 23B) and C/EBPδ in muscles of sham or CKD mice analyzed by RT-PCR (n=4 mice/group; *p<0.05 vs. Stat3flox/flox sham). FIG. 23D. Representative western blots of the indicated proteins in lysates of gastrocnemius muscles of STZ vs. WT control mice (n=5 pairs). FIG. 23E. Sham or CKD mice were treated with C188-9 or D5W (diluent) for 14 days. Representative western blots of indicated proteins from lysates of gastrocnemius muscles are shown (n=8 mice/group). FIGS. 23F & 23G. mRNA levels of myostatin (FIG. 23F) and C/EBPδ (FIG. 23G) analyzed by RT-PCR and corrected for GAPDH (n=3 mice/group: wild-type mice without CKD; sham mice treated with C188-9 or D5W; mice with CKD treated with C188-9 or D5W; *p<0.05 vs. WT non-CKD). Values are means±SEM. FIG. 6. C/EBPδ and myostatin mediate CKD or Stat3-induced muscle wasting. A. Body weights of wild type or homo- or hetero-C/EBPδ KO mice following creation of CKD. Values are expressed as a percentage of basal body weight (mean±SEM; n=9 for WT mice; n=11 for C/EBPδ−/−; n=11 for C/EBPδ+/− mice; *p<0.05 vs. WT CKD). FIG. 23B. Survival was calculated as the percentage of mice surviving at 3 weeks after CKD or after sham surgery (n=20 for WT; n=25 for C/EBPδ−/−; n=21 for C/EBPδ+/−; *p<0.05 vs. C/EBPδ−/− CKD). FIG. 23C. Average weights from both legs of red fiber (soleus) or white fiber (EDL) muscles (mean±SEM; n=10 mice/group; *p<0.05 vs. WT CKD). FIG. 23D. Representative western blots of p-Stat3 and myostatin from muscles of CKD or sham-operated mice of the following groups: C/EBPδ−/−, C/EBPδ+/− or control (WT). FIG. 23E. Cryosections of gastrocnemius muscles from mice that were transfected with lentivirus expressing Stat3C-GPF or GFP and treated with anti-myostatin inhibitor or PBS. The sections were immunostained with p-Smad2/3 (red, lower panel). […] FIG. 23F. GFP-positive areas in myofibers were measured and the mean myofiber sizes of each group are shown (left panel). The percentage of p-Smad2/3 positive nuclei to total nuclei was calculated (right panel; mean±SEM, *p<0.05 vs. GFP/PBS).
All animal experiments and procedures were approved by the Baylor College of Medicine Institutional Animal Care and Use Committee (IACUC). Subtotal nephrectomy was used to create CKD in mice (Zhang et al., 2011; May et al., 1987). To induce diabetes, 12-week-old Stat3^flox/flox and Stat3 KO mice were injected intraperitoneally with 2 doses of 150 mg/kg/d STZ (Sigma-Aldrich) in 0.1 M citrate buffer (pH 4). Control mice were injected with the citrate buffer. […]

[1] = CKD mice, 6.25 mg/kg subcutaneously daily for 14 days vs. D5W
[2] = CKD mice, at 2 weeks, EDL muscles

For `COc1ccc(S(=O)(=O)Nc2cc(-c3c(O)ccc4ccccc34)c(O)c3ccccc23)cc1` [C188-9], the body weights [1] was “significantly greater”, the “level of p-Stat3 in muscle” value [1] was “decreased” and the “Akt phosphorylation in muscle” value (CKD mice, 14 days) was “higher”. The “CKD-induced phosphorylation of p-Smad2/3” value (CKD mice, 14 days) was “blocked”, the grip strength (CKD mice, 14 days vs. D5W) was “improved grip strength” and the “C/EBPδ and myostatin proteins in muscle” value (CKD mice, 14 days, gastrocnemius lysates) was “decreased”. For the same compound, the “CKD-stimulated mRNA expressions of C/EBPδ and myostatin” value (CKD mice, RT-PCR) was “suppressed”, the “weights of gastrocnemius and tibialis anterior muscles” value (CKD mice, after 14 days vs. D5W) was “greater” and the muscle protein degradation [2] was “decreased protein degradation”. For the same compound, the muscle protein synthesis [2] was “improved muscle protein synthesis”, the “C/EBPδ or myostatin mRNAs or proteins in muscle” value (control mice without CKD) was “did not change” and the “food intake, body weight, muscle mass or grip strength” value (control, wild type mice without CKD) was “did not significantly affect”.
